The results in this text go back to paper PMC10054465, “Design, Synthesis, and Antiviral Activities of New Benzotriazole-Based Derivatives” (Pharmaceuticals, 2023).

The test system of one data set is CVB5. Description: microbe, parasite or virus in culture. The format is cell-based, human enterovirus B (coxsackievirus B5).
Conditions: not given
Turning to `CCC(=O)Nc1cccc(Cn2nnc3cc(Cl)c(Cl)cc32)c1` [36a], the “antiviral activity (in words)” value is reported as “no antiviral activity”. With `CC(=O)Nc1cccc(Cn2nnc3cc(Cl)c(Cl)cc32)c1` [35a], the “antiviral activity (in words)” value is listed as “no antiviral activity”.

Still in this data set, the particulars now being: Enterovirus B, CVB5, Vero 76, read-out: CVB5 EC50.
What is called EC50 is the concentration at which the effect is half-maximal. As for `Nc1ccc(Cn2nnc3c(F)cccc32)cc1` [12e], the EC50 is 100 µM. With `Cc1cc2nnn(Cc3ccc(N)cc3)c2cc1C` [12b], the 50% effective concentration (EC50) is 100 µM.

In a further data set the test system is BVDV. Description: microbe, parasite or virus in culture. Particulars: Bovine viral diarrhea virus isolates and strains, MDBK, read-out: BVDV EC50. It counts as cell-based.
Turning to `NC(=O)c1ncn([C@@H]2O[C@H](CO)[C@@H](O)[C@H]2O)n1` [Ribav, ribavirin, reference compound], the half-maximal effective concentration (EC50) was 12 µM.

Still in this data set, the particulars now being: Bovine viral diarrhea virus isolates and strains, MDBK, read-out: BVDV EC50, second value after slash.
Turning to `NC(=O)c1ncn([C@@H]2O[C@H](CO)[C@@H](O)[C@H]2O)n1` [Ribav, ribavirin, reference compound], the concentration for a half-maximal effect (EC50) was 18 µM.

Test system in a further data set: not listed separately
Description: Cytotoxicity in mock-infected MDBK cells (MTT). Particulars: cattle (Bos taurus).
As a reminder, the CC50 is the concentration at which the toxic effect on the cells reaches its halfway point. Read a high CC50 as lower toxicity to the cells. For `NC(=O)c1ncn([C@@H]2O[C@H](CO)[C@@H](O)[C@H]2O)n1` [Ribav, ribavirin, reference compound], the 50% cytotoxic concentration (CC50) is 52 µM.

The data set is the same for the next values; noted with them: cattle (Bos taurus), mock-infected.
Compound `NC(=O)c1ncn([C@@H]2O[C@H](CO)[C@@H](O)[C@H]2O)n1` [Ribav, ribavirin, reference compound] displayed a CC50 of 35 µM.

Test system in a further data set: not given
Assay: not given
Conditions: not given
One may read the melting point as the temperature of the solid-liquid transition. `CCCNC(=O)Nc1ccc(Cn2nnc3cc(F)c(F)cc32)cc1` gave a melting point of 286 to 287 °C. In turn, `Cc1cc2nn(Cc3cccc(NC(=O)c4ccc([N+](=O)[O-])cc4)c3)nc2cc1C` gave a melting point of 184 to 187 °C. Regarding `COc1cc(NC(=O)Nc2cccc(Cn3nnc4cc(C)c(C)cc43)c2)cc(OC)c1OC`, the melting point fell in the range of 206 to 208 °C. Same read-out and setting: as for `COc1cc(C(=O)Nc2ccc(Cn3nnc4ccccc43)cc2)cc(OC)c1OC`, the figure is 147 to 149 °C; as for `O=C(Nc1ccc(Cn2nnc3cc(F)c(F)cc32)cc1)NC1CCCCC1`, 203 to 204 °C.

Compound `Cc1cc2nnn(Cc3cccc(NC(=O)NC4CCCC4)c3)c2cc1C` had a melting point of 290 to 292 °C. Same read-out and setting: as for `CCCNC(=O)Nc1cccc(Cn2nc3cc(C)c(C)cc3n2)c1`, the figure is 204 to 206 °C; as for `CCC(=O)Nc1cccc(Cn2nnc3cc(Cl)c(Cl)cc32)c1` [36a], 145 to 146 °C. As for `CCCCNC(=O)Nc1ccc(Cn2nnc3cc(F)c(F)cc32)cc1`, the melting point lay in the range of 193 to 194 °C. Same read-out and setting: as for `Cc1ccc(C(=O)Nc2cccc(Cn3nnc4cc(Cl)c(Cl)cc43)c2)cc1`, the figure is 199 to 200 °C. In turn, `CCCNC(=O)Nc1cccc(Cn2nnc3cc(Cl)c(Cl)cc32)c1` gave a melting point of over 300 °C.

In the case of `Cc1cc2nn(Cc3cccc(NC(=O)c4ccc(Br)cc4)c3)nc2cc1C`, the melting point lay within 267 to 268 °C.

On to `CC(=O)Nc1ccc(Cn2nnc3cc(F)c(F)cc32)cc1`, for which the melting point was in the range of 242 to 243 °C.

As for `O=C(Nc1ccccc1)Nc1ccc(Cn2nnc3ccccc32)cc1`, the melting point lay in the range of 159 to 161 °C. In turn, `CCCNC(=O)Nc1ccc(Cn2nnc3cc(Cl)c(Cl)cc32)cc1` had a melting point of 213 to 214 °C.

Compound `COc1ccc(C(=O)Nc2cccc(Cn3nnc4cc(C)c(C)cc43)c2)cc1` came in with a melting point of 203 to 206 °C. Still for that read-out and setting: the result for `Cc1cc2nnn(Cc3cccc(NC(=O)c4ccc(C#N)cc4)c3)c2cc1C` reads 242 to 247 °C; that for `O=C(Nc1ccc(Cn2nnc3ccccc32)cc1)c1ccc([N+](=O)[O-])cc1`, 245 to 246 °C.

Compound `COc1cc(C(=O)Nc2cccc(Cn3nnc4cc(C)c(C)cc43)c2)cc(OC)c1OC` [51b] displayed a melting point of 160 to 162 °C. Regarding `CCCC(=O)Nc1ccc(Cn2nnc3c(F)cccc32)cc1`, the melting point is 215 to 216 °C. Same read-out and setting: as for `CC(=O)Nc1cccc(Cn2nc3cc(C)c(C)cc3n2)c1`, the figure is 184 to 187 °C. As to `CCNC(=O)Nc1ccc(Cn2nnc3cc(F)c(F)cc32)cc1`, the melting point was in the range of 286 to 287 °C. As to `Cc1cc2nnn(Cc3ccc(NC(=O)c4ccc([N+](=O)[O-])cc4)cc3)c2cc1C`, the melting point lay within 192 to 194 °C.

Turning to `CCCCNC(=O)Nc1cccc(Cn2nnc3cc(Cl)c(Cl)cc32)c1`, the melting point is 232 to 233 °C.

`CCC(=O)Nc1cccc(Cn2nnc3cc(C)c(C)cc32)c1` registered a melting point of 155 to 157 °C. `CCCNC(=O)Nc1ccc(Cn2nnc3ccccc32)cc1` showed a melting point of 165 to 167 °C.

With `O=C(Nc1cccc(Cn2nnc3cc(Cl)c(Cl)cc32)c1)c1ccc(F)cc1`, the melting point was in the range of 184 to 186 °C. For the compound `CCC(=O)Nc1ccc(Cn2nnc3c(F)cccc32)cc1`, the melting point fell in the range of 244 to 246 °C.

As for `Nc1ccc(Cn2nnc3c(F)cccc32)cc1` [12e], the melting point was 164 to 167 °C.

`CC(=O)Nc1cccc(Cn2nnc3cc(C)c(C)cc32)c1` showed a melting point of 198 to 200 °C. Same read-out and setting: as for `O=C(Nc1ccc(Cn2nnc3c(F)cccc32)cc1)c1ccc([N+](=O)[O-])cc1`, the figure is 272 to 274 °C; as for `O=C(Nc1ccc(Cn2nnc3ccccc32)cc1)c1ccc(OC(F)(F)F)cc1`, 229 to 231 °C; as for `CCNC(=O)Nc1cccc(Cn2nc3cc(C)c(C)cc3n2)c1`, 218 to 219 °C. Same read-out and setting: as for `COc1ccc(NC(=O)Nc2cccc(Cn3nnc4cc(C)c(C)cc43)c2)cc1`, the figure is 233 to 235 °C. The same measure, in the same setting: as for `Cc1cc2nnn(Cc3ccc(N)cc3)c2cc1C` [12b], the figure is 184 to 186 °C. As for `CCCCNC(=O)Nc1ccc(Cn2nnc3cc(Cl)c(Cl)cc32)cc1`, the melting point was in the range of 216 to 217 °C.

Regarding `O=C(Nc1ccc(Cn2nnc3c(F)cccc32)cc1)c1ccccc1`, the melting point lay in the range of 214 to 217 °C. For the compound `COc1ccc(C(=O)Nc2ccc(Cn3nnc4cc(C)c(C)cc43)cc2)cc1`, the melting point was in the range of 196 to 198 °C. Compound `Cc1cc2nn(Cc3cccc(NC(=O)c4ccc(Cl)cc4)c3)nc2cc1C` registered a melting point of 246 to 247 °C. For `Cc1cc2nn(Cc3cccc(NC(=O)NC4CCCCC4)c3)nc2cc1C`, the melting point lay in the range of 299 to 300 °C. The same measure, in the same setting: as for `O=C(Nc1ccc(Cn2nnc3cc(F)c(F)cc32)cc1)c1ccc(F)cc1`, the figure is 241 to 242 °C. On the same count and under the same terms, as for `COc1ccc(C(=O)Nc2ccc(Cn3nnc4c(F)cccc43)cc2)cc1`, the figure is 266 to 268 °C. The same measure, in the same setting: as for `CCC(C)NC(=O)Nc1cccc(Cn2nnc3cc(C)c(C)cc32)c1` (centres unmarked), the figure is 202 to 204 °C; as for `Cc1ccc(C(=O)Nc2cccc(Cn3nnc4cc(C)c(C)cc43)c2)cc1`, 211 to 212 °C; as for `Cc1cc2nnn(Cc3cccc(NC(=O)c4ccc(Br)cc4)c3)c2cc1C`, 237 to 238 °C. In the case of `O=C(Nc1cccc(Cn2nnc3cc(Cl)c(Cl)cc32)c1)c1ccc([N+](=O)[O-])cc1`, the melting point was in the range of 217 to 218 °C.

For the compound `Cc1cc2nnn(Cc3cccc(NC(=O)NC4CCCCC4)c3)c2cc1C`, the melting point was 233 to 235 °C.

The compound `CCC(=O)Nc1ccc(Cn2nnc3ccccc32)cc1` came in with a melting point of 192 to 195 °C. The compound `CCNC(=O)Nc1cccc(Cn2nnc3cc(C)c(C)cc32)c1` yielded a melting point of 271 to 273 °C. The same measure, in the same setting: as for `Nc1ccc(C(=O)Nc2cccc(Cn3nnc4cc(Cl)c(Cl)cc43)c2)cc1`, the figure is 101 to 102 °C; as for `O=C(Nc1ccc(Cn2nnc3cc(F)c(F)cc32)cc1)c1ccc(Br)cc1`, 235 to 236 °C. Same read-out and setting: as for `O=C(Nc1cccc(Cn2nnc3cc(Cl)c(Cl)cc32)c1)c1ccc(C(F)(F)F)cc1`, the figure is 211 to 213 °C; as for `CCC(=O)Nc1ccc(Cn2nnc3cc(F)c(F)cc32)cc1`, 240 to 242 °C; as for `COc1ccc(C(=O)Nc2cccc(Cn3nnc4cc(Cl)c(Cl)cc43)c2)cc1`, 221 to 223 °C. Regarding `O=C(Nc1ccc(Cn2nnc3cc(F)c(F)cc32)cc1)c1ccc([N+](=O)[O-])cc1`, the melting point was 240 to 242 °C. The same measure, in the same setting: as for `CCCCNC(=O)Nc1cccc(Cn2nnc3cc(C)c(C)cc32)c1`, the figure is 195 to 197 °C.

The compound `Cc1cc2nnn(Cc3cccc(NC(=O)NC(C)(C)C)c3)c2cc1C` registered a melting point of 189 to 191 °C.

As for `O=C(Nc1ccc(Cn2nnc3cc(Cl)c(Cl)cc32)cc1)NC1CCCCC1`, the melting point lay in the range of 130 to 132 °C.

Consider `N#Cc1ccc(C(=O)Nc2cccc(Cn3nnc4cc(Cl)c(Cl)cc43)c2)cc1`, for which the melting point fell in the range of 167 to 169 °C.

With `CCC(=O)Nc1cccc(Cn2nc3cc(C)c(C)cc3n2)c1`, the melting point was 178 to 182 °C. The same measure, in the same setting: as for `Cc1cc2nn(Cc3cccc(NC(=O)NC4CCCC4)c3)nc2cc1C`, the figure is 298 to 299 °C.

`O=C(Nc1cccc(Cn2nnc3cc(Cl)c(Cl)cc32)c1)NC1CCCC1` returned a melting point of 231 to 232 °C. In turn, `CCNC(=O)Nc1ccc(Cn2nnc3cc(Cl)c(Cl)cc32)cc1` returned a melting point of 211 to 212 °C.

Consider `CCCNC(=O)Nc1cccc(Cn2nnc3cc(C)c(C)cc32)c1`, for which the melting point is 189 to 191 °C. The same measure, in the same setting: the result for `CCNC(=O)Nc1cccc(Cn2nnc3cc(Cl)c(Cl)cc32)c1` reads 244 to 245 °C; that for `Cc1cc2nnn(Cc3cccc(NC(=O)Nc4ccc(Cl)cc4)c3)c2cc1C`, 249 to 251 °C; that for `Cc1ccc(C(=O)Nc2ccc(Cn3nnc4cc(F)c(F)cc43)cc2)cc1`, 297 to 299 °C. `Cc1cc2nnn(Cc3cccc(NC(=O)c4ccc(Cl)cc4)c3)c2cc1C` [53b] yielded a melting point of 227 to 229 °C. Still for that read-out and setting: as for `O=C(Nc1ccc(Cn2nnc3ccccc32)cc1)NC1CCCCC1`, the figure is 141 to 143 °C; as for `O=C(Nc1ccc(Cn2nnc3cc(F)c(F)cc32)cc1)c1ccc(Cl)cc1`, 263 to 264 °C.

`Cc1cc2nnn(Cc3cccc(NC(=O)Nc4ccc(F)cc4)c3)c2cc1C`: the melting point is 245 to 247 °C. `CC(=O)Nc1ccc(Cn2nnc3c(F)cccc32)cc1`: the melting point lay in the range of 233 to 234 °C. Same read-out and setting: the result for `Cc1cc2nnn(Cc3cccc(NC(=O)c4ccc(F)cc4)c3)c2cc1C` reads 143 to 147 °C; that for `Cc1cc2nnn(Cc3cccc(NC(=O)c4ccc(C(F)(F)F)cc4)c3)c2cc1C`, 201 to 203 °C. In the case of `Cc1cc2nnn(Cc3cccc(NC(=O)c4ccc([N+](=O)[O-])cc4)c3)c2cc1C`, the melting point was 227 to 230 °C.
